# Test results reported in US12018049B2, “Compositions and related methods for controlling vector-borne diseases” (priority 2017, dated 2024).
# Assays:
# Asaia = Asaia quantification by qPCR in mosquito midguts; format: in vivo, Anopheles coluzzii; conditions: blood meals with 0.1, 1 or 5 μg/ml azithromycin, three meals; vs control
# [1] = system: Anopheles coluzzii mosquitoes; assay: Mosquito survival after azithromycin blood meals; format: in vivo; conditions: blood meals with 0.1, 1 or 5 μg/ml azithromycin; vs negative control
# [2] = system: Sitophilus zeamais weevils; assay: Weevil reproduction (emergence of F1 offspring); conditions: 2.5 mg/ml ciprofloxacin; till day 43
# [3] = system: Sitophilus primary endosymbiont (SPE, Candidatus Sodalis pierantonius); assay: SPE levels in weevils by qPCR; format: in vivo, Sitophilus zeamais; conditions: for SPE amount, fold higher in water-treated than in treated weevils: F0 adults, 18 days
# Procedure: (§1) Sitophilus maize weevils (Sitophilus zeamais) were reared on organic corn at 27.5° C. and 70% relative humidity. Prior to being used for weevil rearing, corn was frozen for 7 days and then tempered to 10% humidity with sterile water. […] Ciprofloxacin (Sigma) stock solutions were made at 25 mg/ml in 0.1 N HCl, sterilized by passing through a 0.22 μm syringe filter, and stored at −20° C. For treatments, the appropriate amount of stock solution was diluted in sterile water.
# (§2) Weevil survival was monitored daily for 18 days, after which DNA was extracted from the remaining weevils in each group. Briefly, the weevil body was surface sterilized by dipping the weevil into a 6% bleach solution for approximately 5 seconds. Weevils were then rinsed in sterile water and DNA was extracted from each individual […] using a DNA extraction kit (Qiagen, DNeasy kit) according to manufacturer's instructions. […]; SEQ ID NO: 245). […]; SEQ ID NO: 247) (Login et al., 2011). qPCR was performed using a qPCR amplification ramp of 1.6 degrees C./s and the following conditions: 1) 95° C. for 10 minutes, 2) 95° C. for 15 seconds, 3) 57° C. for 30 seconds, 4) repeat steps 2-3 40×, 5) 95° C. for 15 seconds, 6) 55° C. for 1 minute, 7) ramp change to 0.15 degrees C./s, 8) 95° C. for 1 second. qPCR data was analyzed using analytic (Thermo Fisher Scientific, QuantStudio Design and Analysis) software.
# [4] = system: Sitophilus zeamais weevils; assay: Weevil survival; format: in vivo; conditions: adult mating pairs; 250 μg/ml or 2.5 mg/ml ciprofloxacin; 18 days
# Procedure: as §1, §2
# E. coli DH5a = assay: Antibiotic coating and penetration of corn kernels (E. coli growth on LB plates); format: cell-based, Escherichia coli; conditions: kernels soaked 1.5 hours in 2.5 or 0.25 mg/ml ciprofloxacin
# Buchnera = assay: Buchnera/aphid DNA copy number by qPCR; format: in vivo, Acyrthosiphon pisum
# [5] = system: Acyrthosiphon pisum aphids; assay: Aphid survival monitored daily; format: in vivo
# [6] = system: Acyrthosiphon pisum aphids; assay: Aphid fecundity (offspring counts); format: in vivo; conditions: eNASCO, control approximately 7
# Procedure: (§3) In addition, the developmental stage (1st, 2nd, 3rd, 4th, 5th instar) was determined daily throughout the experiment. Once an aphid reached the 4th instar stage, they were given their own artificial feeding system in a deep petri dish so that fecundity could be monitored once they reached adulthood.
# For adult aphids, new nymphs were counted daily and then discarded. At the end of the experiments, fecundity was determined as the mean number of offspring produced daily once the aphid reached adulthood. Pictures of aphids were taken throughout the experiment to evaluate size differences between treatment groups.
# as §3, with “5th, and 5R (5th that has reproduced)” for “5th”
# For adult aphids, new nymphs were counted daily and then discarded. At the end of the experiments, fecundity was measured in two ways: 1) the mean day at which the first offspring for the treatment group was determined and 2) the mean number of offspring produced daily once the aphid reached adulthood. […]
# In addition, the developmental stage (1st, 2nd, 3rd, 4th, 5th instar) was determined daily throughout the experiment. […]
# [7] = LSR-1, through plants, artificial diet without essential amino acids + 100 μg/ml rifampicin
compound,measurement,setting,value
CC[C@H]1OC(=O)[C@H](C)[C@@H](O[C@H]2C[C@@](C)(OC)[C@@H](O)[C@H](C)O2)[C@H](C)[C@@H](O[C@@H]2O[C@H](C)C[C@H](N(C)C)[C@H]2O)[C@](C)(O)C[C@@H](C)CN(C)[C@H](C)[C@@H](O)[C@]1(C)O [azithromycin],"Asaia specific genes (16S rDNA relative to S7, qPCR)",Asaia,reduction of Asaia specific genes
same,survival rate of mosquitoes,[1],decreased compared to the control
O=C(O)c1cn(C2CC2)c2cc(N3CCNCC3)c(F)cc2c1=O [ciprofloxacin],F1 offspring emerged,[2],much less offspring
same,"SPE amount, fold higher in water-treated than in treated weevils",[3]; 250 ug/ml ciprofloxacin,approximately 4 fold
same,"SPE amount, fold higher in water-treated than in treated weevils",[3]; 2.5 mg/ml ciprofloxacin,~8 fold
same,"SPE levels, fold higher in water-treated than in treated F1 weevils","[3]; F1 weevils dissected from kernels, 2.5 mg/ml ciprofloxacin",approximately 4 fold
same,weevil survival,[4],all weevils remained alive
same,bacterial growth on plate with entire soaked corn kernel,E. coli DH5a,no bacteria grew
"Cc1cc2c(C(C)C)c(O)c(O)c(C=O)c2c(O)c1-c1c(C)cc2c(C(C)C)c(O)c(O)c(C=O)c2c1O [gossypol, gossypol acetic acid]","Buchnera/aphid DNA copies, fold less than control","Buchnera; through plants, 0.25 and 0.5% gossypol, 5 or 13 days",~4 fold
same,time after which aphids began dying,"[5]; through plants, 0.5% gossypol",2 days
CC(=O)CCC(=O)O [levulinic acid],"Buchnera/aphid DNA copies, fold less than control","Buchnera; eNASCO, 0.03 or 0.3% levulinic acid in water, 7 days",~6 fold
same,survival of aphids,"[5]; eNASCO, 0.3% levulinic acid, 11-day experiment",survival was significantly less
CC(C)(CO)[C@@H](O)C(=O)NCCCO [pantothenol],Buchnera/aphid DNA copy number,"Buchnera; eNASCO, 10 or 100 uM pantothenol, 8 days",does not affect Buchnera/aphid DNA copy number directly
same,survival rate of aphids,"[5]; eNASCO, leaf coating, 10 uM pantothenol, p=0.0019",lower survival rates than aphids placed on coated leaves with the control solution
same,survival rate of aphids,"[5]; eNASCO, through plants, 10 or 100 uM pantothenol",negatively affected aphid fitness
same,mean number of offspring per day,[6]; 10 uM pantothenol,approximately 4 offspring/day
same,mean number of offspring per day,[6]; 100 uM pantothenol,~5 offspring/day
CO[C@H]1/C=C/O[C@@]2(C)Oc3c(C)c(O)c4c(O)c(c(/C=N/N5CCN(C)CC5)c(O)c4c3C2=O)NC(=O)/C(C)=C\C=C\[C@H](C)[C@H](O)[C@@H](C)[C@@H](O)[C@@H](C)[C@H](OC(C)=O)[C@@H]1C [rifampicin],"Buchnera/aphid DNA copies, fold less than control","Buchnera; LSR-1, through plants, 100 μg/ml rifampicin, 7 days",~4 fold
same,time after which aphids began dying,[5]; [7],1 days
same,time by which all aphids succumbed to treatment,[5]; [7],≤ 9 days
O=C/C=C/c1ccccc1 [trans-cinnemaldehyde],"Buchnera/aphid DNA copies, fold less than control","Buchnera; LSR-1, 0.5 and 5% trans-cinnemaldehyde, 3 days",~870 fold
same,survival rates of aphids,"[5]; LSR-1, 0.05%, 0.5%, and 5% trans-cinnemaldehyde, vs water",significantly lower
